{"source": "patent US20090181904A1", "about": "“METHOD FOR REGULATING NUTRIENT ABSORPTION WITH GINSENOSIDES” (priority 2005, published 2009)", "key": {"Caco2 cells": {"test_system": "Caco2 cells", "assay": "Cell viability assay (CCK-8)", "format": "cell-based, human", "conditions": "10 μM and 50 μM, culture medium containing 1% FBS, 5 days", "experimental": "In order to investigate whether the purified ginsenosides were toxic to the Caco2 cells, a cell viability assay was carried out using culture medium supplemented with 1% and 10% FBS, respectively. The cells were seeded at a concentration of 5000 cells/well in a 96-well plate. To eliminate the boundary effect of the cell growth, the cells were only seeded in 60 wells of the middle area of the plate, whereas 36 wells at the surrounding area of the plate were filled only with 100 μL of PBS. Once the cells were attached to the plate, the cells were incubated in medium containing the purified ginsenosides at various concentrations (0, 0.1, 1, 10 and 50 μM). […]\nThe cell viability was determined by a Cell Counting Kit-8 (CCK-8, Dojindo Laboratories, Kumamoto, Japan) assay that was based on redox reaction of NADH in the living cells with cell proliferation reagent WST-8. […] Therefore, a greater light absorbance detected by ELISA reader at wavelength of 450 nm indicated presence of a larger number of the living cells.\nThe CCK-8 assay was carried out by adding 10 μL of the CCK-8 reagent in each well of a 96-format plate. The plate was then covered with aluminum foil and further incubated for two hours before measuring for absorbance at wavelengths of 450 nm using an ELISA reader."}, "Caco-2 cell monolayer": {"test_system": "Caco-2 cell monolayer", "assay": "Tryptophan absorption assay (transport across Caco-2 monolayer)", "format": "cell-based, human", "experimental": "In measuring transport of arginine across the Caco-2 cell monolayer, both sides of the transwells were washed with arginine incubation buffer consisting of: 137 mM NaCl, 10 mM Hepes, 0.3 mM NaH2PO4, 0.3 mM K2HPO4, 5.4 mM KCl, 2.8 mM CaCl2, 1 mM MgSO4, 10 mM glucose, adjusted to pH 7.4. Then, the cell layer was pre-incubated in the incubation buffer at 37° C. for 1 h. The volumes of incubation buffer were 0.2 mL and 0.9 mL in the apical and basolateral chambers, respectively. The cells were replaced with fresh incubation medium in both chambers prior to the transport experiment. The transport experiment was initiated by replacing the incubation solution on the apical side with solution containing 10 mM of L-arginine in which 0.125 μCi/mL of L-[^3H]-arginine was included. At designated time intervals, 10 μL-solution samples were removed from the basolateral side and radioactivity of each sample was counted using a microplate liquid scintillation counter (TopCount, Packard NXT). During the experiment, when a 10 μL-solution sample was removed from the basolateral side every time, 10 μL buffer was supplemented to keep the volume constant. The uptake of [^3H]-mannitol was used to correct for nonspecific transport of molecules across the monolayer membrane. Results were expressed as the nanomoles of arginine transport across the Caco-2 cell monolayers with respect to time in minutes (nmol/min).\nThe experimental procedures similar to those in Example 2 were used for measuring the uptake of tryptophan molecules across the Caco-2 membrane, except using a tryptophan incubation buffer consisting of 137 mM choline chloride, 10 mM Hepes, 0.6 mM KH2PO4, 5.4 mM KCl, 2.8 mM CaCl2, 1 mM MgSO4, and 10 mM glucose, and having its pH adjusted to 7.4. Results were expressed as the nanomoles of tryptophan transport across the Caco-2 cell monolayers with respect to time in minutes (nmol/min)."}}, "data": [{"smiles": "CC(C)=CCC[C@](C)(O[C@@H]1O[C@H](CO)[C@@H](O)[C@H](O)[C@H]1O)[C@H]1CC[C@]2(C)[C@@H]1[C@H](O)C[C@@H]1[C@@]3(C)CC[C@H](O)C(C)(C)[C@@H]3[C@@H](O[C@@H]3O[C@H](CO)[C@@H](O)[C@H](O)[C@H]3O)C[C@]12C", "note": "[Rg1, ginsenoside Rg1]", "values": [{"measurement": "cytotoxicity to Caco2 cells (cell viability)", "setting": "Caco2 cells", "value": "exhibited cytotoxicity"}, {"measurement": "* (arrow: regulatory effect on tryptophan transport)", "setting": "Caco-2 cell monolayer; compound 0.001 μM", "value": "↑"}, {"measurement": "Percentage (tryptophan transport, control = 100)", "setting": "Caco-2 cell monolayer; compound 0.001 μM", "value": 130.17, "unit": "%"}, {"measurement": "Transport rate (tryptophan)", "setting": "Caco-2 cell monolayer; compound 0.001 μM", "value": "16.180 ± 2.8700", "unit": "nmol/min"}, {"measurement": "tryptophan transport rate (in words)", "setting": "Caco-2 cell monolayer; compound 0.001 μM to 0.1 μM", "value": "increased"}, {"measurement": "* (arrow: regulatory effect on tryptophan transport)", "setting": "Caco-2 cell monolayer; compound 0.01 μM", "value": "↑"}, {"measurement": "Percentage (tryptophan transport, control = 100)", "setting": "Caco-2 cell monolayer; compound 0.01 μM", "value": 133.47, "unit": "%"}, {"measurement": "Transport rate (tryptophan)", "setting": "Caco-2 cell monolayer; compound 0.01 μM", "value": "16.590 ± 1.4190", "unit": "nmol/min"}, {"measurement": "* (arrow: regulatory effect on tryptophan transport)", "setting": "Caco-2 cell monolayer; compound 0.1 μM", "value": "↑"}, {"measurement": "Percentage (tryptophan transport, control = 100)", "setting": "Caco-2 cell monolayer; compound 0.1 μM", "value": 142.48, "unit": "%"}, {"measurement": "Transport rate (tryptophan)", "setting": "Caco-2 cell monolayer; compound 0.1 μM", "value": "17.710 ± 0.5948", "unit": "nmol/min"}]}]}
